Measured values taken from doi:10.1101/2024.10.18.619128v2 (biorxiv, 2024).
Read-outs that look alike come from different tables or passages of the source. Blank lines part the entries; values can stand above or below the compound they belong to.

Experiments:
ALDH3A1 = ALDH3A1 (Homo sapiens, UniProt P30838); experiment: fluorimetric NADPH assay, global inhibition fit; type: biochemical; details: non-competitive; 4-nitrobenzaldehyde substrate, 1 mM NADP+, 37 °C, pH 7.2
ALDH1A3 = ALDH1A3 (Homo sapiens, UniProt P47895); experiment: HPLC retinaldehyde dehydrogenase assay; type: biochemical
ALDH1A3, sequence (P47895 whole entry): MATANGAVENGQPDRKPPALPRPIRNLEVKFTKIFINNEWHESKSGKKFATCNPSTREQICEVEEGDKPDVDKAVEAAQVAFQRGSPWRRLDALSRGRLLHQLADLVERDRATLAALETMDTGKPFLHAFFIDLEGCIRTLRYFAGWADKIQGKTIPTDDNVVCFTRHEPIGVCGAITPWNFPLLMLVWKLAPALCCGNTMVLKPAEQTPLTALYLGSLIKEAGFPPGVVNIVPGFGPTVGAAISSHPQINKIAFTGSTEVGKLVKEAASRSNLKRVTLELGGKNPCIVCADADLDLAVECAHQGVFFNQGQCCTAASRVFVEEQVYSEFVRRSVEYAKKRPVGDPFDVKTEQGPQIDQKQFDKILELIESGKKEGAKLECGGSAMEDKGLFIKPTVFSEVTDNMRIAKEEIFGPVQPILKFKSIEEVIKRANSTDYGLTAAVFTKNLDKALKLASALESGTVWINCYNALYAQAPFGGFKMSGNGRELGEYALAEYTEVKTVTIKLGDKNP

ALDH1A2 = ALDH1A2 (Homo sapiens, UniProt O94788); experiment: HPLC retinaldehyde dehydrogenase assay; type: biochemical
ALDH1A2, sequence (O94788 whole entry): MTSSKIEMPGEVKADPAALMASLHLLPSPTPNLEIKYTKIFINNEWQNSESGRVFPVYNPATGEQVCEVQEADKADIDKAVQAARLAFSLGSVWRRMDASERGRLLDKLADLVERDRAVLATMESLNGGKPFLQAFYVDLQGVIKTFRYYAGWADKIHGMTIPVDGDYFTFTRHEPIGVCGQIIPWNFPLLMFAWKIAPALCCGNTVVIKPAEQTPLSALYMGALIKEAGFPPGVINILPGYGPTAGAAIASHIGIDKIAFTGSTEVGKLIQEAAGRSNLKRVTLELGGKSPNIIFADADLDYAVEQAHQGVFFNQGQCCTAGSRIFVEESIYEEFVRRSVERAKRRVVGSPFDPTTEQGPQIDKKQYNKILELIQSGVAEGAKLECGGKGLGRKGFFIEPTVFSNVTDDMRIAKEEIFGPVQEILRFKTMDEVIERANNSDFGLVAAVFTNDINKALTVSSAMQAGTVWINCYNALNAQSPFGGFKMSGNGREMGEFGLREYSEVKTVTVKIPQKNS

ALDH1A1 = ALDH1A1 (Homo sapiens, UniProt P00352); experiment: HPLC retinaldehyde dehydrogenase assay; type: biochemical
ALDH1A1, sequence (P00352 whole entry): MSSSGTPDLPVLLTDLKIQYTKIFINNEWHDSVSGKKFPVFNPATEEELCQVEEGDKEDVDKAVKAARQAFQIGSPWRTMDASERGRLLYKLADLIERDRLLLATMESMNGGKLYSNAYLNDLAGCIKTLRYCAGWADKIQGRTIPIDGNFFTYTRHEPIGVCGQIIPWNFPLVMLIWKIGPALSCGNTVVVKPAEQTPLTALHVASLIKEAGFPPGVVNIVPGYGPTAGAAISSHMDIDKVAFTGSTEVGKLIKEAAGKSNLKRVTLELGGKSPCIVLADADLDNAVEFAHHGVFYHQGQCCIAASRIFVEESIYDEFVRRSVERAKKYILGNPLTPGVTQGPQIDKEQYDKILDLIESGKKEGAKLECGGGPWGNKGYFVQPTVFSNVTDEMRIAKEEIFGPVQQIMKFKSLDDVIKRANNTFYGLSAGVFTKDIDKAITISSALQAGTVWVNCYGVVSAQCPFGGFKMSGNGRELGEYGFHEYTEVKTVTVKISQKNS

BT474 = experiment: cells; details: Homo sapiens, BT-474, 48 h
HCC1419 = experiment: cells; details: Homo sapiens, HCC1419, 48 h
HCC1569 = experiment: cells; details: Homo sapiens, HCC1569, 48 h
HCC1954 = experiment: cells; details: Homo sapiens, HCC1954, 48 h
MCF7 = experiment: cells; details: Homo sapiens, MCF7, 48 h
MDAMB436 = experiment: cells; details: Homo sapiens, MDA-MB-436, 48 h
MAXFHER 1162 = experiment: cells; details: read-out: DIMATE
MAXFHER 2690 = experiment: cells; details: read-out: DIMATE
MAXFHER 4035 = experiment: cells; details: read-out: DIMATE
MAXFHER BR64 = experiment: cells; details: read-out: DIMATE
MAXFTN 1384 = experiment: cells; details: read-out: DIMATE
MAXFTN 2990 = experiment: cells; details: read-out: DIMATE
MAXFTN 401 = experiment: cells; details: read-out: DIMATE
MAXFTN 449 = experiment: cells; details: read-out: DIMATE
MAXFTN 508 = experiment: cells; details: read-out: DIMATE
MAXFTN BR120 = experiment: cells; details: read-out: DIMATE
BT20 = experiment: cells; details: Homo sapiens, BT-20, 48 h, read-out: III / CEY1410
DU4475 = experiment: cells; details: Homo sapiens, DU-4475, 48 h, read-out: III / CEY1410
HCC1143 = experiment: cells; details: Homo sapiens, HCC1143, 48 h, read-out: III / CEY1410
HCC1937 = experiment: cells; details: Homo sapiens, HCC1937, 48 h, read-out: III / CEY1410
HCC70 = experiment: cells; details: Homo sapiens, HCC70, 48 h, read-out: III / CEY1410
HS578T = experiment: cells; details: Homo sapiens, Hs-578T, 48 h, read-out: III / CEY1410
MDAMB231 = experiment: cells; details: Homo sapiens, MDA-MB-231, 48 h, read-out: III / CEY1410
MDAMB361 = experiment: cells; details: Homo sapiens, MDA-MB-361, 48 h, read-out: III / CEY1410
MDAMB453 = experiment: cells; details: Homo sapiens, MDA-MB-453, 48 h, read-out: III / CEY1410
MDAMB468 = experiment: cells; details: Homo sapiens, MDA-MB-468, 48 h, read-out: III / CEY1410
SKBR3 = experiment: cells; details: Homo sapiens, SK-BR-3, 48 h, read-out: III / CEY1410
T47D = experiment: cells; details: Homo sapiens, T47D, 48 h, read-out: III / CEY1410

ALDH3A1, sequence (P30838 whole entry): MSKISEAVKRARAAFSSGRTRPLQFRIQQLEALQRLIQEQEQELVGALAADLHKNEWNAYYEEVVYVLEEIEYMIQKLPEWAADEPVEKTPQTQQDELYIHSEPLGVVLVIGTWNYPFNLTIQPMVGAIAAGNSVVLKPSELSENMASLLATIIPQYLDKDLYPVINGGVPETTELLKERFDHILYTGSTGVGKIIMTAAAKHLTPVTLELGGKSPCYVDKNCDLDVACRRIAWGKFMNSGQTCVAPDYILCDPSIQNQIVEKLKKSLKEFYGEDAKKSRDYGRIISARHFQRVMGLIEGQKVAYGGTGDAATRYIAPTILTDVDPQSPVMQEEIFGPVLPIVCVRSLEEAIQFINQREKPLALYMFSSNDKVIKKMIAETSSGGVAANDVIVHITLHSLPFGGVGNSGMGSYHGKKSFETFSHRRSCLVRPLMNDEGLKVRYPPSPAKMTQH

Ki (ALDH3A1): 233 ± 16 µM
Compound: ABD0171

IC50 (ALDH1A3): 5.7 ± 0.5 µM
IC50 (ALDH1A2): 6.4 ± 0.9 µM
IC50 (ALDH1A1): 25 ± 2 µM
GI50 (BT474; read-out: I / DIMATE): 3 µM
GI50 (HCC1419; read-out: I / DIMATE): 7.9 µM
GI50 (HCC1569; read-out: I / DIMATE): 5 µM
GI50 (HCC1954; read-out: I / DIMATE): > 30 µM
GI50 (MCF7; read-out: I / DIMATE): 10.4 µM
GI50 (MDAMB436; read-out: I / DIMATE): 3.9 µM
Compound: CSC(=O)C#CC(C)(C)N(C)C [DIMATE, 4-dimethylamino-4-methyl-pent-2-ynthioic acid-S-methyl ester]
GI50 (MAXFHER 1162): 1.42 µM
GI50 (MAXFHER 2690): 2.65 µM
GI50 (MAXFHER 4035): 2.55 µM
GI50 (MAXFHER BR64): 1.05 µM
GI50 (MAXFTN 1384): 7.32 µM
GI50 (MAXFTN 2990): 4.29 µM
GI50 (MAXFTN 401): 0.52 µM
GI50 (MAXFTN 449): 0.46 µM
GI50 (MAXFTN 508): 1.11 µM
GI50 (MAXFTN BR120): 4.06 µM

Compound: CN(C)C(C)(C)C#CC(=O)O [CEY1410]
GI50 (BT20): > 30 µM
GI50 (BT474; read-out: III / CEY1410): > 30 µM
GI50 (DU4475): > 30 µM
GI50 (HCC1143): > 30 µM
GI50 (HCC1419; read-out: III / CEY1410): > 30 µM
GI50 (HCC1569; read-out: III / CEY1410): > 30 µM
GI50 (HCC1937): > 30 µM
GI50 (HCC1954; read-out: III / CEY1410): > 30 µM
GI50 (HCC70): > 30 µM
GI50 (HS578T): > 30 µM
GI50 (MCF7; read-out: III / CEY1410): > 30 µM
GI50 (MDAMB231): > 30 µM
GI50 (MDAMB361): > 30 µM
GI50 (MDAMB436; read-out: III / CEY1410): > 30 µM
GI50 (MDAMB453): > 30 µM
GI50 (MDAMB468): > 30 µM
GI50 (SKBR3): > 30 µM
GI50 (T47D): > 30 µM
